This is an account of results in patent US11632953B2, “Method for controlling hematophagous or sap-feeding arthropods” (Board of Supervisors of Louisiana State University and …, priority 2016, dated 2023).

Where two headings read alike, the source gives them in different places.

In test [1] the test system is isolated tick salivary gland. Nature of the test: fluid secretion (salivation) in the isolated tick salivary gland, modified Ramsay assay. The settings on record: for IC50: read-out: IC50 inhibition of salivation; for total salivation volume: control 150 nL/5 min. More on the design: species or system Amblyomma americanum.
Test [2] deals with isolated tick salivary gland. Description: ion secretion in saliva of the isolated tick salivary gland. More on the design: species or system Amblyomma americanum.
Test [3] deals with Amblyomma americanum. Nature of the test: tick blood feeding with compound included in the blood meal. It is filed as in vivo. The settings on record: for average detachments during blood feeding: control 0.11.
Text: All ticks were observed attempting to feed by including rhodamine B, a fluorescent tracer, in the blood meal.
In test [4] the test system is Amblyomma americanum. Description: tick toxicity (compound in blood meal or injected). Type of test: in vivo. The settings on record: for mortality rate: in blood meal. The source says: A failure to osmoregulate during blood feeding would result in a buildup of ions at toxic concentrations into the hemocoel.
Test [5] relates to Aedes aegypti mosquitoes. Description: saliva collection from live mosquito after injection. It is filed as in vivo. The settings on record: control 1.4 μL. An excerpt:
We investigated the influence of Katp modulators on mosquito salivation and blood feeding. We employed an established assay to collect the saliva from a live mosquito.

Test [6] deals with Aedes aegypti mosquitoes. Description: mosquito blood feeding with compound exposure. The settings on record: compound added to blood. Type of test: in vivo. The source says: Tolbutamide and glybenclamide are inhibitors of ATP-gated Kir channels.
A further test deals with mosquito Kin channels. The settings on record: in vitro; cited from earlier work.
In a further test the test system is mosquitoes. The settings on record: in vivo; cited from earlier work.
Another test concerns Chickungunya virus. Description: infection of mosquitoes by virus after blood meal. The settings on record: in vivo.
Test [7] deals with sugar and bitter cells of mosquito mouthparts. Nature of the test: electrophysiological recordings of maxilla gustatory sensilla.

A word on the IC50: it is the point on the concentration scale where inhibition reaches its midpoint. Turning to `Cn1c(=O)c2c(ncn2Cc2ccc(C(C)(C)C)cc2)n(C)c1=O` [VU063], in [1], the “effect on salivation in the isolated salivary gland” value is on record as “eliminated salivation”. Moreover, the values for the IC50 in test [1] (10 min of salivation), in test [1] (20 min of salivation) and in [1] (30 min of salivation) were 772 nM, 560 nM and 410 nM, respectively. In addition, the “effect of pre-exposure of the gland to ATP on inhibition of salivation” value in test [1] (pre-exposure to ATP) is “negated the inhibitory effect”. In addition, the “cations (K+ and Na+) concentrations excreted from the salivary glands” value in test [2] is given as “significant reduction”. Moreover, in the test with Amblyomma americanum [3] (VU063 at 100 μM in blood meal), the tick body weights result was “not statistically different from that of unfed ticks”. Further, the “volume of ingested blood” value in the test with Amblyomma americanum [3] (compound in blood meal, VU063 at 100 μM) is recorded as “below the limits of detection”. Also, the “average detachments during blood feeding” value with Amblyomma americanum [3] was determined as 3.6 times per feeding. For the same molecule, the “pattern of mortality as a function of time compared with pinacidil” value in the test with Amblyomma americanum [4] (exposed while feeding) is reported as “nearly-identical pattern of mortality”. In the test on Aedes aegypti mosquitoes [5], this molecule had a secreted saliva volume of 0.1 µL. The “reduction of total volume of blood consumed” value in the test on Aedes aegypti mosquitoes [6] was 99%.
As for `CCC(=O)N1c2ccc(S(=O)(=O)Nc3cccc(OC)c3)cc2CC1C` (stereo not shown) [VU625], in the test with mosquito Kin channels, the half-maximal inhibitory concentration (IC50) was around 100 nM. Also, the “topical toxicity to mosquitoes” value in the test on mosquitoes is given as “not topically toxic”.
For `CC(N=C(NC#N)Nc1ccncc1)C(C)(C)C` (racemic) [pinacidil, (±)-N-Cyano-N′-4-pyridinyl-N″-(1,2,2-trimethylpropyl)guanidine], the total salivation volume in test [1] (600 μM pinacidil after pre-exposure to ATP) came out at 142 nL/5 min; in test [1] (600 μM pinacidil) it was 40 nL/5 min. Further, the “Effect on Salivation at 10 minutes (reduction)” value in test [1] (10 minutes, isolated tick salivary gland) was “Reduced ~98%”. Moreover, the concentration for half-maximal inhibition (IC50) in [1] (Amblyomma americanum, 10 min, 10 min of salivation) came out at 320000 nM; in test [1] (Amblyomma americanum, 20 min, 20 min of salivation) it was 250000 nM; in test [1] (Amblyomma americanum, 0.5 h, 30 min of salivation) it was 120000 nM. In addition, the “reduction of salivary output / saliva secretion compared to control” value in test [1] (isolated tick salivary gland) is recorded as 97%. The “cations (K+ and Na+) concentrations excreted from the salivary glands” value in [2] was “significant reduction”. In the test on Amblyomma americanum [3] (400 μM in blood meal, throughout the course of feeding), the “reduction of volume of blood ingested” value is “up to 15 fold”. For the same molecule, the “average detachments during blood feeding” value in the test with Amblyomma americanum [3] was determined as 2.1 times per feeding. Further, the “volume of blood ingested” value in the test with Amblyomma americanum [3] (day 6 of feeding, 400 μM, control 16±4) was 1.2±0.3 μL per day. For the same molecule, the mortality rate amounted to 65% in the test on Amblyomma americanum [4] (day 1); 72% in the test with Amblyomma americanum [4] (day 2); 88% with Amblyomma americanum [4] (day 3); 94% in the test with Amblyomma americanum [4] (day 4); 99% in the test with Amblyomma americanum [4] (day 5). In addition, in the test on Aedes aegypti mosquitoes [5], the secreted saliva volume was 0.3 µL. Moreover, the “reduction of total volume of blood consumed” value with Aedes aegypti mosquitoes [6] amounted to 99%. In the test on Chickungunya virus, the “infection of mosquitoes by the virus after feeding on a blood meal” value is “inhibited infection”. The “response of gustatory sensilla cells” value in test [7] is “elicits a spike in the sugar and bitter cells”.
